B1: hUSP47CD-UBL12: human USP47 catalytic domain with the first two UBL domains, residues 1-794 (protein, UniProt Q96K76 1-794, looked up, fragment)
chain: MVPGEENQLVPKEDVFWRCRQNIFDEMKKKFLQIENAAEEPRVLCIIQDTTNSKTVNERITLNLPASTPVRKLFEDVANKVGYINGTFDLVWGNGINTADMAPLDHTSDKSLLDANFEPGKKNFLHLTDKDGEQPQILLEDSSAGEDSVHDRFIGPLPREGSGGSTSDYVSQSYSYSSILNKSETGYVGLVNQAMTCYLNSLLQTLFMTPEFRNALYKWEFEESEEDPVTSIPYQLQRLFVLLQTSKKRAIETTDVTRSFGWDSSEAWQQHDVQELCRVMFDALEQKWKQTEQADLINELYQGKLKDYVRCLECGYEGWRIDTYLDIPLVIRPYGSSQAFASVEEALHAFIQPEILDGPNQYFCERCKKKCDARKGLRFLHFPYLLTLQLKRFDFDYTTMHRIKLNDRMTFPEELDMSTFIDVEDEKSPQTESCTDSGAENEGSCHSDQMSNDFSNDDGVDEGICLETNSGTEKISKSGLEKNSLIYELFSVMVHSGSAAGGHYYACIKSFSDEQWYSFNDQHVSRITQEDIKKTHGGSSGSRGYYSSAFASSTNAYMLIYRLKDPARNAKFLEVDEYPEHIKNLVQKERELEEQEKRQREIERNTCKIKLFCLHPTKQVMMENKLEVHKDKTLKEAVEMAYKMMDLEEVIPLDCCRLVKYDEFHDYLERSYEGEEDTPMGLLLGGVKSTYMFDLLLETRKPDQVFQSYKPGEVMVKVHVVDLKAESVAAPITVRAYLNQTVTEFKQLISKAIHLPAETMRIVLERCYNDLRLLSVSSKTLKAEGFFRSNKVFV
modifications: catalytic domain with UBL1-2

How the values were obtained:
USP7 = conditions: cited from earlier work; for potency and specificity for USP7: recently reported USP7 inhibitors
USP47 = conditions: cited from earlier work
HCT116 (p53+/+) cells = assay: Q-PCR relative expression levels, HCT116 (p53+/+); assay type: cell-based, human
Ub-AMC = Ub-AMC hydrolysis, Michaelis-Menten enzyme kinetics and relative activity of USP constructs; assay type: biochemical
Description: Enzymes and substrates were diluted in the reaction buffer (20 mM HEPES, pH 7.4, 150 mM NaCl, and 5 mM DTT) to a concentration of 5 μM for the substrate and 0.5 μM for the enzymes. At the indicated time points following the reaction initiation, 10 μL reaction aliquots were taken and the reaction was stopped by adding SDS sampling buffer and analyzed using SDS-PAGE. Then, the 4–15% gradient gel was stained with Coomassie Brilliant Blue R-250. USP enzymatic activity and inhibition assays were measured at room temperature using the cleavage-sensitive fluorogenic substrate Ub-AMC (Boston Biochem, U-550). The deubiquitination assay was performed following the protocol by Ernst et al.[30]. Briefly, enzyme activity assays were performed in assay buffer in 20 mM HEPES (pH 7.4), 100 mM NaCl, and 5 mM DTT) containing cUSP47CD (in 50 nM), hUSP47CD-UBL12 (in 100 nM) or hUSP7CD (in 100 nM) constructs and serial dilutions of Ub-AMC (final 35 μM). The AMC fluorescence emission was monitored at 460 nm (excitation at 380 nm) for 30–60 min using a SpectraMax M3 plate reader (Molecular Devices). […] The data were fitted using GraphPad Prism 7 (GraphPad Inc.). Fluorescence intensity was recorded every 45 s for 90 min. Data are presented as the mean ± SD (n = 3).

Molecule	relative expression level of USP7 (Q-PCR) (HCT116 (p53+/+) cells)	relative expression level of USP47 (Q-PCR) (HCT116 (p53+/+) cells)	further results
CCc1c(-c2ccc(C(=O)NC)nc2)cnc(N)c1-c1ccc(O)cc1 [GNE6776]			potency and specificity for USP7 (USP7): high potency and specificity only for USP7
C=C1C(=O)O[C@H]2[C@H]1CC/C(C)=C/CC[C@@]1(C)O[C@@H]21 [Parthenolide]			inhibition of USP7 (USP7): can also inhibit both DUBs; inhibition of USP47 (USP47): can also inhibit both DUBs
C[C@H](CC(=O)N1CCC(O)(Cn2cnc3cc(NC(=O)CCN4CCN(C)CC4)ccc3c2=O)CC1)c1ccccc1 [XL188]			potency and specificity for USP7 (USP7): high potency and specificity only for USP7
USP7i-2: USP7 siRNA #2, 5′-ACCCUUGGACAAUAUUCCU-3′ (chemistry not given here)	0.5662	0.9671	
USP47i-1: USP47 siRNA #1, 5′-AAGCTACTCCTACTCATCTATTT-3′ (chemistry not given here)	0.6273	0.3385	
USP47i-2: USP47 siRNA #2, 5′-TGAAAAGGGATGTGCAAAA-3′ (chemistry not given here)	0.9487	0.486	
B1			Km (Ub-AMC): 3 ± 0.6 µM; kcat (Ub-AMC): 0.03 ± 0.002 s⁻¹

From article PMC10516900 (Communications Biology, 2023)
